Experimental data from patent US20210238173A1, “MITOGEN-ACTIVATED PROTEIN KINASE KINASE 7 INHIBITORS” (Yeda Research and Development Co. Ltd., priority 2018, published 2021).
pEC50, pIC50: −log10 of the molar value.

Assays:
[1] = target: T1, MKK7 (Homo sapiens, UniProt O14733); test: Intact protein mass spectrometry covalent labeling; assay type: binding; conditions: 4° C., molecule 20 μM, protein 10 μM
T1 construct: MKK7 isoform 1 (103-426 residues) with a C-terminal 6-His tag; 6-His (C); made in house; host or cells: E. coli Rosetta2 (DE3) pLysS
T1 sequence (O14733 103-426 isoform O14733-3): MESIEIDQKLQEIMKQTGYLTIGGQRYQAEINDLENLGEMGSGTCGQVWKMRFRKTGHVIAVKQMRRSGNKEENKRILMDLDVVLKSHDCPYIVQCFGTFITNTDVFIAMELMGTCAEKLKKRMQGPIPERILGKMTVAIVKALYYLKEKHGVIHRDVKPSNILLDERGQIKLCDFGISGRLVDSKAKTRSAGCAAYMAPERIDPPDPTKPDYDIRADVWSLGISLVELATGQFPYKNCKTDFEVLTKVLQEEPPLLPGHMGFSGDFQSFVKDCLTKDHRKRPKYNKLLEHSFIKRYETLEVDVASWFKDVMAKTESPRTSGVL
Protocol: Intact Protein Mass Spectrometry:
Samples were injected after indicated incubation times into LC/MS (Waters ACUITY UPLC class H), in positive ion mode using electrospray ionization. C4 column (300 Å, 1.7 μM, […]×100 mm) was held at 40° C., and the autosampler at 10° C. Desolvation temperature was 500° C. with flow rate of 1000 liter/hour. The voltage used were 0.69 kV for the capillary and 46 V for the cone. Spectra were deconvoluted using MaxEnt1 software.
After 1 hour or 16 hours incubation at 4° C.

[2] = test system: pJNK in 3T3 WT cells; test: In-cell western (ICW) pJNK inhibition in 3T3 WT; assay type: cell-based; conditions: 3T3 WT, sorbitol stimulation
Protocol: HEK293, Beas2B and 3T3 cells were plated 24 hours before procedure on 384 well clear bottom black flat plates (Corning) pre-coated with Fibronectin (Sigma) diluted in PBS to a concentration of 5 μg/ml 45 minutes prior to cells introduction. Cells were plated using Multidrop™ Combi reagent dispenser (Thermo Fisher Scientific). Compound, reagents and antibody dispensing as well as washes were performed with a CyBio liquid handler (Analytik). Cells were pre-incubated with a small molecule or up to 1% DMSO for 2 h before fixation. HEK293, 3T3 or Beas2B cells were treated with 0.6M/0.2M/0.2M D-Sorbitol/PBS (Sigma) for 20/40/40 min. respectively, before fixation. Media was removed and wells were immediately fixed with 150 μl per well of 3.7% formaldehyde/PBS fixing solution for 20 min. Formaldehyde was then aspired and cells were permeabilized with 150 μl of 0.5% Triton x-100/PBS solution for 10 min. After aspiration cells were washed with ice-cold methanol and stored at −20° C., for 10 min. Methanol was aspired and cells were blocked with 150 μl blocking buffer (LICOR) for 90 min. Primary antibody Phospho-SAPK/JNK T183/Y185 (CST; 9251S) was diluted 1:1000 in blocking buffer and was applied 50 μl per well, except control wells to which only blocking buffer was applied, O.N. (16 h) at 4° C. with mild shaking. Primary antibody was aspired, wells were washed with 150 μl 0.1% Tween20/PBS (Sigma) washing solution three times for 7 min. IRDye® 800CW Goat anti-Rabbit IgG Secondary antibody (LICOR) was then diluted 1:1200 in blocking buffer with 50 μl applied per well on control wells only (no CellTag control), then CellTag700 (1:2000) was added to the solution and 50 μl were added to all experiment wells, for 1 h at room temperature. Wells were aspired and washed again with 150 μl 0.1% Tween20/PBS (Sigma) washing solution three times for 7 min. plate was dried and scanned with Odyssey CLx imaging system at 700 nm and 800 nm (Licor). Wells signals were analyzed with Odyssey software. The signal was normalized by the CellTag700 signal.
To rapidly assess the cellular activity (EC50) with full dose response curves of the MKK7 covalent inhibitors, according to some embodiments of the present invention, an in-cell western assay was adapted to a 384 well plate format over traditional western blot, and monitored phospho-JNK (pJNK) levels in response to osmotic shock. We first characterized the dynamics of pJNK in response to sorbitol. Sufficient dynamic range for pJNK is achieved at 20 minutes in HEK293 cells and at 40 minutes in 3T3 and Beas2B cells. The compound's activity was assessed by pre-treating cells with either compound or DMSO for 2 hours, followed by Sorbitol stimulation. The response of pJNK, and its substrates, pc-Jun and pATF2, was measured, as well as pP38, which is a substrate of MKK4 but not MKK7, and pERK in HEK293 cells, and the results are presented in Table 5 below.
Wildtype 3T3 cells, 3T3 MKK7 double knock-out (MKK7^−/−) cells and MKK4/7 double knockouts (MKK4/7^−/−) were used to validate on target activity of the MKK7 covalent inhibitors presented herein.

[3] = target: CSNK1G2 (CK1 gamma 2) (Homo sapiens, UniProt P78368); test: Kinome selectivity screen CSNK1G2; assay type: biochemical; conditions: 1 μM compound
CSNK1G2 (CK1 gamma 2), sequence (P78368 whole entry): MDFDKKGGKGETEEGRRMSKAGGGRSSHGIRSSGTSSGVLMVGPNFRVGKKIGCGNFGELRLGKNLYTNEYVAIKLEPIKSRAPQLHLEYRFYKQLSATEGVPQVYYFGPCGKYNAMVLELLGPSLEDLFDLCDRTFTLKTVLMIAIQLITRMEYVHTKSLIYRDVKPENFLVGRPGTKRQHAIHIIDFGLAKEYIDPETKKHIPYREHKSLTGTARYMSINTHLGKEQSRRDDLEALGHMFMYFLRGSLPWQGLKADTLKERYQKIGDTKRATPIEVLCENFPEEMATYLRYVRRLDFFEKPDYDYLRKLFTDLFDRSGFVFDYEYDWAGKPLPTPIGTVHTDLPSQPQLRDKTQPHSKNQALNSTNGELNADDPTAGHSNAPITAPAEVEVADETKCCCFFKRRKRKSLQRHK
Protocol: (§1) Kinome Selectivity Screen:
(§2) Kinase selectivity was assessed using the Life Technologies SelectScreen Kinase Profiling Service in a custom panel of 76 kinases selected to provide broad representative coverage of all kinase families. Kinase activity assays employed either the Z′-LYTE or Adapta assay technologies with ATP concentrations at or near the KM, ATP for each kinase and a test compound concentration of 1 μM.

[4] = target: PRKG2 (PKG2) (Homo sapiens, UniProt Q13237); test: Kinome selectivity screen PRKG2; assay type: biochemical; conditions: 1 μM compound
PRKG2 (PKG2), sequence (Q13237 whole entry): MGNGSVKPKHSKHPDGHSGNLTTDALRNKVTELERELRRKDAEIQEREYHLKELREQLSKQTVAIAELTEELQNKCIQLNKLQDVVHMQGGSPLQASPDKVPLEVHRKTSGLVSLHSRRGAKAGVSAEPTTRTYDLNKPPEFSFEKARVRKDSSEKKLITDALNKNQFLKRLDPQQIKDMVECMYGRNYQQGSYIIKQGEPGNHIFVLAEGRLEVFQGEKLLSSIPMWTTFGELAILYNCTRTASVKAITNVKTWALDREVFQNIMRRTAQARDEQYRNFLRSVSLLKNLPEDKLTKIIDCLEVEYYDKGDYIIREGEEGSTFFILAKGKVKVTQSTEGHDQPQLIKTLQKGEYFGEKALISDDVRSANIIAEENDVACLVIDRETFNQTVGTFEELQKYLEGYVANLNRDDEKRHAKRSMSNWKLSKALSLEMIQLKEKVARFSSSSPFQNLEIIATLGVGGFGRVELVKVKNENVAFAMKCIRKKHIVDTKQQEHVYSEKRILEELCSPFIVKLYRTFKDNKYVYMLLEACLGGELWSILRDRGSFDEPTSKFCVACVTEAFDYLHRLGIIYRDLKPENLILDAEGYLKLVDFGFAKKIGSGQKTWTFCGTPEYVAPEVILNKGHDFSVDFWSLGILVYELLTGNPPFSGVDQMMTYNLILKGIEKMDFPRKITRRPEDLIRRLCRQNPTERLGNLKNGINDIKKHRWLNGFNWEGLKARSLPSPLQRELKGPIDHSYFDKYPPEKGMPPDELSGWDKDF
Protocol: as §1, §2

[5] = target: DAPK3 (ZIPK) (Homo sapiens, UniProt O43293); test: Kinome selectivity screen DAPK3; assay type: biochemical; conditions: 1 μM compound
DAPK3 (ZIPK), sequence (O43293 whole entry): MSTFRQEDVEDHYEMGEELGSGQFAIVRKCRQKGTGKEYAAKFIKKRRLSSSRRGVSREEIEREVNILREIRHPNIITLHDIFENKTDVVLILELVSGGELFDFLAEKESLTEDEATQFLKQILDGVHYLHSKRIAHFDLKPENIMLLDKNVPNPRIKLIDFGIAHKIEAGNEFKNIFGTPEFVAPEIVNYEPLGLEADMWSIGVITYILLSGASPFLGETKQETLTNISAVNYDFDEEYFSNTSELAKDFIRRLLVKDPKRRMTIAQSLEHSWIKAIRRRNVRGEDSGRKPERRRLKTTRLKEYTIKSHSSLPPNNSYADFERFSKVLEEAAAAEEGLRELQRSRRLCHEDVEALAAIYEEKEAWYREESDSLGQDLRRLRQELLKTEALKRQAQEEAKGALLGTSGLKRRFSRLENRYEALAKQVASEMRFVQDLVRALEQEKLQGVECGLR
Protocol: as §1, §2

[6] = target: MAPK14 (p38 alpha) (Homo sapiens, UniProt Q16539); test: Kinome selectivity screen MAPK14; assay type: biochemical; conditions: 1 μM compound
Protocol: as §1, §2

[7] = target: PKN1 (PRK1) (Homo sapiens, UniProt Q16512); test: Kinome selectivity screen PKN1; assay type: biochemical; conditions: 1 μM compound
Protocol: as §1, §2

[8] = target: KDR (VEGFR2) (Homo sapiens, UniProt P35968); test: Kinome selectivity screen KDR; assay type: biochemical; conditions: 1 μM compound
Protocol: as §1, §2

[9] = target: LRRK2 (Homo sapiens, UniProt Q5S007); test: Kinome selectivity screen LRRK2; assay type: biochemical; conditions: 1 μM compound
LRRK2, sequence (Q5S007 970-2527 limits assumed): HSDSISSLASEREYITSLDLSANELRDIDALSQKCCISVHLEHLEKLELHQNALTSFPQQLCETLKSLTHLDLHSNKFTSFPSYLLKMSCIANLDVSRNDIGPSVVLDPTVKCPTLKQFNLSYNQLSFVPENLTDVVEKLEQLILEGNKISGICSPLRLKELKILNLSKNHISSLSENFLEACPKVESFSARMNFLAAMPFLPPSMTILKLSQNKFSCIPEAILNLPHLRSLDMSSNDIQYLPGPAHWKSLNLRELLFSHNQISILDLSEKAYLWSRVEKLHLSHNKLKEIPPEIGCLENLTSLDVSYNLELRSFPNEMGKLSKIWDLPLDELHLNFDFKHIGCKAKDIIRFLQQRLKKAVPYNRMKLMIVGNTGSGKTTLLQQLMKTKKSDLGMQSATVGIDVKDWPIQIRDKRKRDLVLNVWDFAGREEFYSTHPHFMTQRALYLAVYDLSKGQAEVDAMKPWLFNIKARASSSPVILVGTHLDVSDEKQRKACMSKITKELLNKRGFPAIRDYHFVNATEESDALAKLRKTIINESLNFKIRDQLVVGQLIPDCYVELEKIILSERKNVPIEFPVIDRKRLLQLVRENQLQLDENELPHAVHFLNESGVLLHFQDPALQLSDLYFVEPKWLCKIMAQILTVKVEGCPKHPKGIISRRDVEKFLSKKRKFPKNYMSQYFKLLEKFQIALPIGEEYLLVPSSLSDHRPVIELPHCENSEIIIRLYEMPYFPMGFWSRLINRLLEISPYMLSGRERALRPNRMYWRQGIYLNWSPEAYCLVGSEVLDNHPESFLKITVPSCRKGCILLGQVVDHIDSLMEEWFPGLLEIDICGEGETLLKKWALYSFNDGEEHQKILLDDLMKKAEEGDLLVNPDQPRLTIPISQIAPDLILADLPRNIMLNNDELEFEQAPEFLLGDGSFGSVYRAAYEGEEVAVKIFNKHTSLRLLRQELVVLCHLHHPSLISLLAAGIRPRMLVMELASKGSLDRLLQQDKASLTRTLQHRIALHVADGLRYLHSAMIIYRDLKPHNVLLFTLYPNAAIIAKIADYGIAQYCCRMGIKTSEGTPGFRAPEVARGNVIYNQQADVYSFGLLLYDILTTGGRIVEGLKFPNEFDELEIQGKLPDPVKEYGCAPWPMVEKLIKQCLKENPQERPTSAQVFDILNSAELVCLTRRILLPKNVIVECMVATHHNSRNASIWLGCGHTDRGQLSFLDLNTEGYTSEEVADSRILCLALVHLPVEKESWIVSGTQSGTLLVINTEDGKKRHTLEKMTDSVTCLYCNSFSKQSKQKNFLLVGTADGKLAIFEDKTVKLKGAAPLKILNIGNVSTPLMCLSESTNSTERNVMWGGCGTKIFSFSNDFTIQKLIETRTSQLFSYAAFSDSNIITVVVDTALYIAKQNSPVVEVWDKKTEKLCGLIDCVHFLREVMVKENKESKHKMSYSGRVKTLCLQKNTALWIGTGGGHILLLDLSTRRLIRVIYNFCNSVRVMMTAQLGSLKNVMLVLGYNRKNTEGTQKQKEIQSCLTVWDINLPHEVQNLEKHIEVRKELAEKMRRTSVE
Protocol: as §1, §2

[10] = target: STK22D (TSSK1) (Homo sapiens, UniProt Q9BXA7); test: Kinome selectivity screen STK22D; assay type: biochemical; conditions: 1 μM compound
STK22D (TSSK1), sequence (Q9BXA7 whole entry): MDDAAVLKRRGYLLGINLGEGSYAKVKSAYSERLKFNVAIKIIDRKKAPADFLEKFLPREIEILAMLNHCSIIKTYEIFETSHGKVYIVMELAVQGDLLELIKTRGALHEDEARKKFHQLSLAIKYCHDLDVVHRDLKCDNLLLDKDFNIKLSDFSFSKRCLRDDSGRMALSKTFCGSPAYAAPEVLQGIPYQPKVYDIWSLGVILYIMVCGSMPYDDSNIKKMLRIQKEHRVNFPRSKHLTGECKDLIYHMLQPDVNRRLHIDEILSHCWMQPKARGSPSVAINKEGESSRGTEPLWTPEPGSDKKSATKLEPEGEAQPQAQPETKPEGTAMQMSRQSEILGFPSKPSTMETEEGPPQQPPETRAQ
Protocol: as §1, §2

[11] = target: MET (cMet) (Homo sapiens, UniProt P08581); test: Kinome selectivity screen MET; assay type: biochemical; conditions: 1 μM compound
MET (cMet), sequence (P08581 25-1390): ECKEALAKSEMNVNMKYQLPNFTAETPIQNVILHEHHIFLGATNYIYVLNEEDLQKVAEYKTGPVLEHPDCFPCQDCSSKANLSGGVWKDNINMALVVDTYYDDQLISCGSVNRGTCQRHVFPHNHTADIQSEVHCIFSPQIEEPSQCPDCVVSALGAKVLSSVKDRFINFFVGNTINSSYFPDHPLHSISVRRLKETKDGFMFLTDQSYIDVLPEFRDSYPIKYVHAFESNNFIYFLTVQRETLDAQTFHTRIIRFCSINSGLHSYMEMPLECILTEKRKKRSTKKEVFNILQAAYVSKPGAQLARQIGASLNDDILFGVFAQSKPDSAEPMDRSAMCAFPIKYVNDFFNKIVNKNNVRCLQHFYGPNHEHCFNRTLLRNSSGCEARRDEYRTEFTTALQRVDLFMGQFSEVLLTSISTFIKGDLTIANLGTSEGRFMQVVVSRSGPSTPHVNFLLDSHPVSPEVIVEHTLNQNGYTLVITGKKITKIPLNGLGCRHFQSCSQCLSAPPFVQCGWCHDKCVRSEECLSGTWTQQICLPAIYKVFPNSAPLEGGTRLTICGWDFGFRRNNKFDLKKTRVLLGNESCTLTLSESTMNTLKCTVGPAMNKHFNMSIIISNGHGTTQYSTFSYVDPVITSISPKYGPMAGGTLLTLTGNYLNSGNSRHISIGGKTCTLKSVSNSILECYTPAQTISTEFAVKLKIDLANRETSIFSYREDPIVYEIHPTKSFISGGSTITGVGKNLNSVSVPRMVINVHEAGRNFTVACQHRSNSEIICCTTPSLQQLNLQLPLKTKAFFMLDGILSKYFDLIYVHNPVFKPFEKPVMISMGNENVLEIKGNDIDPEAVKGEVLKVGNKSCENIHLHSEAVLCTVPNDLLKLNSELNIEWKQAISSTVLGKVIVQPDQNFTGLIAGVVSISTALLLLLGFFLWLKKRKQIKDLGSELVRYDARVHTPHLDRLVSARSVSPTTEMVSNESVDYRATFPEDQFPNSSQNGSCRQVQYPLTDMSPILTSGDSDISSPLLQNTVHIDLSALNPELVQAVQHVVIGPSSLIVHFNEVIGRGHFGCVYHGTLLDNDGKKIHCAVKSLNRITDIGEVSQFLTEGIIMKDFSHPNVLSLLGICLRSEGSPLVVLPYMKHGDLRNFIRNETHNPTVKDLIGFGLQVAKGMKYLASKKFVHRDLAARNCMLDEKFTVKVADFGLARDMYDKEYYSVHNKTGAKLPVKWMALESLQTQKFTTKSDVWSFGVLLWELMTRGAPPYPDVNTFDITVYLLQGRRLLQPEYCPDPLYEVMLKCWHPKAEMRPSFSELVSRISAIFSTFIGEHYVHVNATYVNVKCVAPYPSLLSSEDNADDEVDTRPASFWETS
Protocol: as §1, §2

[12] = target: LCK (Homo sapiens, UniProt P06239); test: Kinome selectivity screen LCK; assay type: biochemical; conditions: 1 μM compound
Protocol: as §1, §2

C=CC(=O)Nc1cccc(-c2n[nH]c3c2CCCC3)c1 [GO4]
covalent labeling ([1]; 1 hour): 65.16%
covalent labeling ([1]; 16 hours): 95.15%
pEC50 ([2]; ICW, 2 h pre-incubation): < 5.00
pIC50 [2]: 4.74

C=CC(=O)Nc1cccc(-c2n[nH]c3ccccc23)c1 [GO32]
covalent labeling ([1]; 1 hour): 78.14%
covalent labeling ([1]; 16 hours): 96.29%
inhibition at 1 µM [3]: 3%
inhibition at 1 µM [4]: -2%
inhibition at 1 µM [5]: -3%
inhibition at 1 µM [6]: 9%
pIC50 [2]: 5.29
inhibition at 1 µM [7]: 4%
inhibition at 1 µM [8]: 4%
inhibition at 1 µM [9]: 95%
inhibition at 1 µM [10]: 0%
inhibition at 1 µM [11]: 9%
inhibition at 1 µM [12]: 5%

C=CC(=O)Nc1cccc(-c2n[nH]c3cc(C)ccc23)c1 [GO80]
covalent labeling ([1]; 1 hour): 59.58%
covalent labeling ([1]; 16 hours): 92.87%
inhibition at 1 µM [3]: -13%
inhibition at 1 µM [4]: 0%
inhibition at 1 µM [5]: -2%
inhibition at 1 µM [6]: 16%
pIC50 [2]: 5.39
inhibition at 1 µM [7]: 1%
inhibition at 1 µM [8]: 6%
inhibition at 1 µM [9]: 94%
inhibition at 1 µM [10]: -1%
inhibition at 1 µM [11]: 13%
inhibition at 1 µM [12]: 5%
